Laboratory results published in patent publication US20240400577A1, “MODULATORS OF PROTEIN KINASES” (VIBLIOME THERAPEUTICS, LLC, priority 2021, published 2024).

Experiments:
Experiment in all cases: Kinase panel enzymatic inhibition assay (Nanosyn)
Assay type in all cases: biochemical
LCK = biological target: T1, LCK (Homo sapiens, UniProt P06239); details: ATP at Km, 30-minute pre-incubation; for inhibition at 5 µM: compound 5 μM; for IC50: read-out: kinase inhibition in terms of IC50, LCK
T1 construct: purchased Nanosyn (contract screening)
T1 sequence (P06239 whole entry): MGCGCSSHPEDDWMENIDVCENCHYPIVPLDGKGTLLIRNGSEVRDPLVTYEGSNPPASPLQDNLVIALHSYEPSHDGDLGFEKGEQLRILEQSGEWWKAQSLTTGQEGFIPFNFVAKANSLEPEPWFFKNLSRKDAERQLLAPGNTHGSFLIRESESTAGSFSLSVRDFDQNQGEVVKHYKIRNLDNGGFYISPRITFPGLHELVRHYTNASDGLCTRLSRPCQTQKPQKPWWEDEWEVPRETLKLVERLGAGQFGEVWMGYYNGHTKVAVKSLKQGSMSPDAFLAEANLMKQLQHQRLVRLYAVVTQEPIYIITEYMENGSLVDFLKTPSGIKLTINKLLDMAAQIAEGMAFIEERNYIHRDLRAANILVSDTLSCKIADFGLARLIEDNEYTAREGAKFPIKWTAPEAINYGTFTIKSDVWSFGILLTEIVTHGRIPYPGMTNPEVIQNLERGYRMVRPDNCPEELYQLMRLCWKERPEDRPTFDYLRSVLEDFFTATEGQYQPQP
Procedure: (§1) The disclosed compounds were tested for activity against a panel of at least 300 kinases. Kinase panel screening was conducted by Nanosyn (Santa Clara, CA 95051) using an enzymatic inhibition assay accepted as valid by those skilled in the art (e.g., the Caliper LabChip® mobility shift assay, an ADP detection assay, or time-resolved fluorescence detection technology. Compounds were screened at a concentration of 5 μM using an ATP concentration at the Km for each of the respective kinases and a 30-minute pre-incubation time-point.
(§2) In Table 1 and 2, kinase inhibition is classified by: A=95% or greater, B=90%-94%, C=80%-89%, and D=79% and less with a compound concentration of 5 JIM. In Table 3 and 4, kinase inhibition is reported in terms of IC50 values corresponding to A=less than 500 nm, B=500 nm to less than 1 μM, C=1 μM to less than 10 μM, and D=10 μM or greater using a compound concentration of 5 μM.

p38a = biological target: T2, p38a (Homo sapiens, UniProt Q16539); details: compound 5 μM; ATP at Km; 30-minute pre-incubation
T2 construct: Nanosyn (contract laboratory that ran the panel)
Procedure: as §1, §2

HCK = biological target: T3, HCK (Homo sapiens, UniProt P08631); details: compound 5 μM; ATP at Km; 30-minute pre-incubation
T3 construct: purchased Nanosyn (contract screening)
T3 sequence (P08631 whole entry): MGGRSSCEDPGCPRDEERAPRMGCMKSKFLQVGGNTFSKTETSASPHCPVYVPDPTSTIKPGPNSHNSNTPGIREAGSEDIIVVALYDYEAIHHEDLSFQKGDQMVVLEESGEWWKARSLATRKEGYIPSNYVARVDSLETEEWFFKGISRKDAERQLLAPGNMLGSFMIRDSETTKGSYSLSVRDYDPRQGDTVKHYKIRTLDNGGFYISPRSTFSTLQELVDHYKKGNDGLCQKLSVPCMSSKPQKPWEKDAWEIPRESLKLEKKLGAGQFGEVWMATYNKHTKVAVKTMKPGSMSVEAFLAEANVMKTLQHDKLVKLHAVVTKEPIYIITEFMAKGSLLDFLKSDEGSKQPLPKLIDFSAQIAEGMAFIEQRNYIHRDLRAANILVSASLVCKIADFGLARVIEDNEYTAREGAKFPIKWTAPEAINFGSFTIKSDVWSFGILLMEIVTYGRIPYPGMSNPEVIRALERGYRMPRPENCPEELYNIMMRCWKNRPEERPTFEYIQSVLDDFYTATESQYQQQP
Procedure: as §1, §2

BRK = biological target: T4, BRK (Homo sapiens, UniProt Q13882); details: compound 5 μM; ATP at Km; 30-minute pre-incubation
T4 construct: purchased Nanosyn (contract screening)
T4 sequence (Q13882 whole entry): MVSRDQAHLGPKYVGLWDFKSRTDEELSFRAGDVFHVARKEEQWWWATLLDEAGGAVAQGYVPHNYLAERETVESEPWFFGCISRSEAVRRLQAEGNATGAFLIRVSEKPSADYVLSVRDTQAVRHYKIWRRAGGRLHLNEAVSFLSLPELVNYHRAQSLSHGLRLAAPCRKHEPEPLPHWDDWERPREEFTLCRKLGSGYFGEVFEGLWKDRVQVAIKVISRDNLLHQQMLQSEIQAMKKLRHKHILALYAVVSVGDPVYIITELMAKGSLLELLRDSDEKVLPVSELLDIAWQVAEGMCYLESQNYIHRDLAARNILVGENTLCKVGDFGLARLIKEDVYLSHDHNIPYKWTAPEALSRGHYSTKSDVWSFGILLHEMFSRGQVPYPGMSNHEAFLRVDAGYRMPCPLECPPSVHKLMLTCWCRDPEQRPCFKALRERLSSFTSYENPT
Procedure: as §1, §2

SGK2 = biological target: T5, SGK2 (Homo sapiens, UniProt Q9HBY8); details: compound 5 μM; ATP at Km; 30-minute pre-incubation
T5 construct: Nanosyn (contract laboratory that ran the panel)
T5 sequence (Q9HBY8 1-367): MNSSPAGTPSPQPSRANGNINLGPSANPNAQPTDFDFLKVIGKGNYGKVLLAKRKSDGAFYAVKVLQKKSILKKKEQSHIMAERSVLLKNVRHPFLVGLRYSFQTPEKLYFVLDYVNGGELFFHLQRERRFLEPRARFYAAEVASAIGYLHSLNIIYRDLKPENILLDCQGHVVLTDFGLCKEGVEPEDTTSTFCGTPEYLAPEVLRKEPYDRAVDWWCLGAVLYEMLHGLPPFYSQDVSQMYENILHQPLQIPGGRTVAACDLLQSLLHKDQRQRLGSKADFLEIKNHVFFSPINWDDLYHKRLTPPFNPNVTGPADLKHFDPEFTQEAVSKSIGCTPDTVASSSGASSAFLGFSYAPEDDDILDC
Procedure: as §1, §2

TNIK = biological target: T6, TNIK (Homo sapiens, UniProt Q9UKE5); details: compound 5 μM; ATP at Km; 30-minute pre-incubation
T6 construct: Nanosyn (contract laboratory that ran the panel)
T6 sequence (Q9UKE5 whole entry): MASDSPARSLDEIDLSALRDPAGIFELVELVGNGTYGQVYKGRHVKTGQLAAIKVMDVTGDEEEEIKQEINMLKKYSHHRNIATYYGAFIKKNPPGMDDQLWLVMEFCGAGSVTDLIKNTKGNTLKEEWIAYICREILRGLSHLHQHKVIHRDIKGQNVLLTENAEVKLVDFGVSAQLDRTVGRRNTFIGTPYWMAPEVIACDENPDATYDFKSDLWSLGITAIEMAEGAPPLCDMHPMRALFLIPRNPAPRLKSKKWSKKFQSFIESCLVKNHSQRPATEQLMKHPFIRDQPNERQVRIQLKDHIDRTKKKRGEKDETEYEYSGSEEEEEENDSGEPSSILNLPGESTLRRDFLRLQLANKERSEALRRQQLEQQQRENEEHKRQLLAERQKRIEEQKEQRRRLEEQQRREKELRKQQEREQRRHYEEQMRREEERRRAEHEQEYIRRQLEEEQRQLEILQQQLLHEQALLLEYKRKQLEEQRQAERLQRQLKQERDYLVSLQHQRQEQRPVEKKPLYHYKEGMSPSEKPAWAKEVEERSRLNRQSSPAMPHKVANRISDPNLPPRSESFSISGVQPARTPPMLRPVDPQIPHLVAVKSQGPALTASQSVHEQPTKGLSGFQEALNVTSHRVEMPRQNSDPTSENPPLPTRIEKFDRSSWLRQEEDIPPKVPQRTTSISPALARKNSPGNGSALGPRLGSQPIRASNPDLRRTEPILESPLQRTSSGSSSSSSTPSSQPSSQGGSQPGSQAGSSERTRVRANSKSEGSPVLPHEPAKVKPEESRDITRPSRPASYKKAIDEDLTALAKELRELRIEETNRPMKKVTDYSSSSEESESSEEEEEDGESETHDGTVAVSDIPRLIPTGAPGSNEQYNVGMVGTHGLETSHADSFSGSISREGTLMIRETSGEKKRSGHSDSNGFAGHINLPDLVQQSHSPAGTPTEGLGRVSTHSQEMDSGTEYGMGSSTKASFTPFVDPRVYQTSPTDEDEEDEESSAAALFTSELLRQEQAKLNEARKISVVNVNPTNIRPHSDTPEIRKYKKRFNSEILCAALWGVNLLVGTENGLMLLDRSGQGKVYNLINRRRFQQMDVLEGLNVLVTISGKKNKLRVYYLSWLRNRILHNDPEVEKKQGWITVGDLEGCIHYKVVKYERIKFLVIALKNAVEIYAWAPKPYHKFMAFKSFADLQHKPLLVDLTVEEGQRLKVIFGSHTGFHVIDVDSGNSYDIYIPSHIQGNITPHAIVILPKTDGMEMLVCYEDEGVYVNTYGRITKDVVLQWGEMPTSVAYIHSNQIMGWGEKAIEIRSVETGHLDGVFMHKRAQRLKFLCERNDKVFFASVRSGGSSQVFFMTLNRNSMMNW
Procedure: as §1, §2

SRC = biological target: T7, SRC (Homo sapiens, UniProt P12931); details: compound 5 μM; ATP at Km; 30-minute pre-incubation
T7 construct: Nanosyn (contract laboratory that ran the panel)
T7 sequence (P12931 whole entry): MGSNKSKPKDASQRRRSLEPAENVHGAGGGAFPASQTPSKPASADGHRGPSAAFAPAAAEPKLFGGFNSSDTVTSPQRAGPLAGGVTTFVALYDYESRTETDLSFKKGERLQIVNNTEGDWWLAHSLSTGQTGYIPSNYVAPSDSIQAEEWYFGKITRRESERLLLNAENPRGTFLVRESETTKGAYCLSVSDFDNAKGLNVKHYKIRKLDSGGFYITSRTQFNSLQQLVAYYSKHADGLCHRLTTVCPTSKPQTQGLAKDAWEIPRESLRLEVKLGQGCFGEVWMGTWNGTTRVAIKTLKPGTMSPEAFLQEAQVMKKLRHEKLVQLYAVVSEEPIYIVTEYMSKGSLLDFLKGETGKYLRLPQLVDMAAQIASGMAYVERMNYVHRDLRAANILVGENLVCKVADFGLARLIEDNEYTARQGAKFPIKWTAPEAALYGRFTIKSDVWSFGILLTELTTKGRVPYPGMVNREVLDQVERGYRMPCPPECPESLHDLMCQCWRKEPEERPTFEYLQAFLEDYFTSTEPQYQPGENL
Procedure: as §1, §2

MAP4K2 = biological target: T8, MAP4K2 (Homo sapiens, UniProt Q12851); details: compound 5 μM; ATP at Km; 30-minute pre-incubation
T8 construct: purchased Nanosyn (contract screening)
T8 sequence (Q12851 1-820): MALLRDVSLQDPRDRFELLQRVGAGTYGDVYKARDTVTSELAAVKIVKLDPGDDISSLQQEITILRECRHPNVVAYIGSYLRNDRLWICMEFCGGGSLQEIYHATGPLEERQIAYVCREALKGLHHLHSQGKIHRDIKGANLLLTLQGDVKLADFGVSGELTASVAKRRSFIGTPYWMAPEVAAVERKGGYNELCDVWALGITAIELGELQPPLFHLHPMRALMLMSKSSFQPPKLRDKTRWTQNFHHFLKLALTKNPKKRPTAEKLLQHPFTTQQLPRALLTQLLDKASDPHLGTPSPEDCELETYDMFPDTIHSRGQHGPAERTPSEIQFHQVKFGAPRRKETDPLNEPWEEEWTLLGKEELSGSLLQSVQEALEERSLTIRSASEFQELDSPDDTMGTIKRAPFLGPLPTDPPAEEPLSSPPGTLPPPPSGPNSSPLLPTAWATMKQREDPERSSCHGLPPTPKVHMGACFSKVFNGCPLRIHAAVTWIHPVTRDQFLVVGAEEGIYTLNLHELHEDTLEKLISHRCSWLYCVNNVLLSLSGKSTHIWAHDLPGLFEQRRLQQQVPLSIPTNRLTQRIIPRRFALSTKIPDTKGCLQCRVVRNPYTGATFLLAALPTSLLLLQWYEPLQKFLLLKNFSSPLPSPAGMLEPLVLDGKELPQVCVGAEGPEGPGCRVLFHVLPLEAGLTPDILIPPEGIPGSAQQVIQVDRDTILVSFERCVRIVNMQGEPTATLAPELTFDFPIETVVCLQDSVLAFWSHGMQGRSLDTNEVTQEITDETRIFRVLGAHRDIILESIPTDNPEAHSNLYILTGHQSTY
Procedure: as §1, §2

DDR2 = biological target: T9, DDR2 (Homo sapiens, UniProt Q16832); details: ATP at Km, 30-minute pre-incubation; for inhibition at 5 µM: compound 5 μM; for IC50: read-out: kinase inhibition in terms of IC50, DDR2
T9 construct: purchased Nanosyn (contract screening)
T9 sequence (Q16832 22-855): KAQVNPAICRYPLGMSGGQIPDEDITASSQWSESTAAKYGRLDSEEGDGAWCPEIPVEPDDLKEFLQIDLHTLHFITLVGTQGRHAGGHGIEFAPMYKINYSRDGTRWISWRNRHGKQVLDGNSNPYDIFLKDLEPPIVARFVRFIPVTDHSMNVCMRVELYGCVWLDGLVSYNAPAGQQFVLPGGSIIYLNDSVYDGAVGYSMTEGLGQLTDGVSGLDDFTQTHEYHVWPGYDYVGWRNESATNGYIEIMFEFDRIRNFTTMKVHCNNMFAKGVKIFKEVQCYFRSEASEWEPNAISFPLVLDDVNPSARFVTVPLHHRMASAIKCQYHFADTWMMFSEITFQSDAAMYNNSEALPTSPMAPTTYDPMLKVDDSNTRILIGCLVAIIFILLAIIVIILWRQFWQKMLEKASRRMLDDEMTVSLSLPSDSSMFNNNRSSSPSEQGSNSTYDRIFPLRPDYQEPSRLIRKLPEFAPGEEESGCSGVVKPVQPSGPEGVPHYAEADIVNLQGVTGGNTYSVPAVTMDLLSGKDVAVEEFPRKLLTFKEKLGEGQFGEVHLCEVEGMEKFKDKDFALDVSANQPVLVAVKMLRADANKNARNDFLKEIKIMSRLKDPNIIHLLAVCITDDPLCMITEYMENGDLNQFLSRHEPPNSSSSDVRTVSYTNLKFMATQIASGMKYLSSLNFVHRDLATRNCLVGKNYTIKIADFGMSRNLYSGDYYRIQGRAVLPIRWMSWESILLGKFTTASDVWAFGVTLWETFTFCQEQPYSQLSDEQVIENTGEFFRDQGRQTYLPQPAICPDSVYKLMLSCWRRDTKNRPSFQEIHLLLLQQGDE
Procedure: as §1, §2

COT1 = biological target: T10, COT1 (Homo sapiens, UniProt P41279); details: compound 5 μM; ATP at Km; 30-minute pre-incubation
T10 construct: purchased Nanosyn (contract screening)
Procedure: as §1, §2

KDR = biological target: T11, KDR (Homo sapiens, UniProt P35968); details: compound 5 μM; ATP at Km; 30-minute pre-incubation
T11 construct: purchased Nanosyn (contract screening)
T11 sequence (P35968 20-1356): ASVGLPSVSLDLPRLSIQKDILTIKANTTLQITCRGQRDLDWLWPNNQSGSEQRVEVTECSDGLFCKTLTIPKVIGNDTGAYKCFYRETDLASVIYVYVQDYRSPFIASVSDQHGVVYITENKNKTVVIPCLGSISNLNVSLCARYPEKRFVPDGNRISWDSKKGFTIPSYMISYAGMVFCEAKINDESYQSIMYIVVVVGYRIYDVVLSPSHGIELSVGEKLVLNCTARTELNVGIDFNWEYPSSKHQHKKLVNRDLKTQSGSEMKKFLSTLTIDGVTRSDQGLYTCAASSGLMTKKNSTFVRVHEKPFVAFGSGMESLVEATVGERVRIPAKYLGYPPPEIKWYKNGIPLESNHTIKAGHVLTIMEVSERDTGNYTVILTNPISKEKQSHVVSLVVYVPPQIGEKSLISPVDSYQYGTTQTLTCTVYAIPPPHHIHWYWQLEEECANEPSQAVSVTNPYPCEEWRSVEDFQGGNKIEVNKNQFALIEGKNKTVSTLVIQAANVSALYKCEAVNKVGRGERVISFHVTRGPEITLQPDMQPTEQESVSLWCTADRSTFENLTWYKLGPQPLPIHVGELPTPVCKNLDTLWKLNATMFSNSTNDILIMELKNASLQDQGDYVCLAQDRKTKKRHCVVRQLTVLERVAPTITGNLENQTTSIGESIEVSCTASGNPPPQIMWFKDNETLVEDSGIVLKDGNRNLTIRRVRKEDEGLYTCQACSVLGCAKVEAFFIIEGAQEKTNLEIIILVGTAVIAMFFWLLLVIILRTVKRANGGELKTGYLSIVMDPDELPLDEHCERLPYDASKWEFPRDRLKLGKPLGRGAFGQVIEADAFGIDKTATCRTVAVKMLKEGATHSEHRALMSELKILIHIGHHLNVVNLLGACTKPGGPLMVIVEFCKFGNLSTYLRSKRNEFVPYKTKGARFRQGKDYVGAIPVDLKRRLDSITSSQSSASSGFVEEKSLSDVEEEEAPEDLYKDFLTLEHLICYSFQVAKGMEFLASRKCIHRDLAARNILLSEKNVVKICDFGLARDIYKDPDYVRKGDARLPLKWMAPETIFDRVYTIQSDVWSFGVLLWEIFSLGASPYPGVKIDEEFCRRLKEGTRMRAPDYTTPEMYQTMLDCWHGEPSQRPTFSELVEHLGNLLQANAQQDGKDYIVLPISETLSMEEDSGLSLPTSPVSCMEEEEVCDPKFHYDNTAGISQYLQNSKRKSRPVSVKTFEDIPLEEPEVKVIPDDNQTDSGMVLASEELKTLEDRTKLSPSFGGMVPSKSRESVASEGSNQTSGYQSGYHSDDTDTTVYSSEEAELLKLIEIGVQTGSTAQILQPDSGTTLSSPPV
Procedure: as §1, §2

SMILES | inhibition at 5 µM (LCK) | inhibition at 5 µM (p38a) | inhibition at 5 µM (HCK) | inhibition at 5 µM (BRK) | inhibition at 5 µM (SGK2) | inhibition at 5 µM (TNIK) | inhibition at 5 µM (SRC) | inhibition at 5 µM (MAP4K2) | inhibition at 5 µM (DDR2) | inhibition at 5 µM (COT1) | inhibition at 5 µM (KDR) | IC50 (LCK) | IC50 (DDR2)
Cc1ccc(NC(=O)c2cc(S(C)(=O)=O)n(-c3ccc(F)cc3)n2)cc1-c1cc(OCCO)nc(N2CCOCC2)c1 [Ex9, 1-(4-fluorophenyl)-N-(3-(2-(2-hydroxyethoxy)-6-morpholinopyridin-4-yl)-4-methylphenyl)-5-(methylsulfonyl)-1H-pyrazole-3-carboxamide] | < 79% | < 79% | < 79% | < 79% | < 79% | < 79% | < 79% | < 79% | 90 to 94% | < 79% | < 79% |  | 
Cc1ccc(NC(=O)c2cc([S+](C)[O-])n(-c3ccc(F)cc3)n2)cc1-c1cc(OCCO)nc(N2CCOCC2)c1 (stereo not drawn) [Ex10, 1-(4-fluorophenyl)-N-(3-(2-(2-hydroxyethoxy)-6-morpholinopyridin-4-yl)-4-methylphenyl)-5-(methylsulfinyl)-1H-pyrazole-3-carboxamide] | < 79% | < 79% | < 79% | < 79% | < 79% | < 79% | < 79% | < 79% | 80 to 89% | < 79% | < 79% |  | 
COc1cc2nccc(Oc3ccc(NC(=O)c4cc(S(C)(=O)=O)n(-c5ccc(F)cc5)n4)c(F)c3)c2cc1OC [Ex71, N-(4-((6,7-dimethoxyquinolin-4-yl)oxy)-2-fluorophenyl)-1-(4-fluorophenyl)-5-(methylsulfonyl)-1H-pyrazole-3-carboxamide] |  |  |  |  |  |  |  |  |  |  |  | < 500 nM | < 500 nM
COc1cc2nccc(Oc3ccc(NC(=O)c4cc(S(C)(=O)=O)n(-c5ccc(F)cc5)n4)cc3)c2cc1OC [Ex72, N-(4-((6,7-dimethoxyquinolin-4-yl)oxy)phenyl)-1-(4-fluorophenyl)-5-(methylsulfonyl)-1H-pyrazole-3-carboxamide] |  |  |  |  |  |  |  |  |  |  |  | 500 to 1000 nM | 
COc1cc2nccc(Oc3ccc(NC(=O)c4cc(S(C)(=O)=O)n(-c5ccc(F)cc5)n4)cc3F)c2cc1OC [Ex73, N-(4-((6,7-dimethoxyquinolin-4-yl)oxy)-3-fluorophenyl)-1-(4-fluorophenyl)-5-(methylsulfonyl)-1H-pyrazole-3-carboxamide] |  |  |  |  |  |  |  |  |  |  |  | 500 to 1000 nM | < 500 nM
